Experimental data taken from US20230255970A1, “COMPOSITIONS AND METHODS FOR TREATING PROLIFERATIVE DISEASES” (The Broad Institute, Inc., priority 2020, published 2023).

What was measured:
[1] = tested on: YAP1 overexpression in U2OS cells; assay: Cell Painting morphological profile matching to YAP1/TAZ overexpression signature; type: cell-based, human; settings: for Corr. to YAP1 cluster: Pearson correlation of Cell Painting signatures, U2OS cells
Source text: (§1) Of these, analysis of the 220 constructs that were most closely representative of the annotated full-length transcripts was prioritized. […] Not all genes are likely to impact cellular morphology given the limitation of the experiment; using a single cell line at a single time point under a single set of conditions and stained with six fluorescent labels.
FIG. 2 provides an example characterization of matching the morphological signature of a gene query to the signature(s) of compounds in a library. Connections which show both positive and negative large correlations are considered as matches.
(§2) This standardization was done plate wise, based on the mean and standard deviation of the controls at profile level for the compound dataset. […] The signatures were then obtained by averaging the replicate profiles feature-wise. Pearson correlation was used on the aligned signatures of a gene and compound to score their connection.

[2] = tested on: TRAF2 overexpression in U2OS cells; assay: Cell Painting morphological profile matching to TRAF2 overexpression; type: cell-based, human; settings: for Corr. to TRAF2: Pearson correlation of Cell Painting signatures, U2OS cells
Source text: as §1, §2

U2OS cells = assay: Cell count in U2OS Cell Painting images; type: cell-based, human; settings: for Avg. Cell Count z-score: U2OS Cell Painting
Source text: as §1, §2

[3] = tested on: H9 human pluripotent stem cells; assay: qPCR of YAP1, CTGF and CYR61 in H9 hPSCs; type: cell-based; settings: 24 hrs
Experimental: H9 hPSCs (WiCell) were maintained on vitronectin (Thermo Fisher)-coated plates in Essential 8 (E8) medium. The cells were routinely passaged using 0.5 mM EDTA and treated with 5 μM Y-27632 dihydrochloride (Tocris) on the first day. For testing the effects of the small molecules, H9 hPSCs were seeded at 50K cells/cm^2 on vitronectin-coated plates in E8 medium supplemented with 5 μM Y-27632 dihydrochloride (day 0). On day 1, the medium was switched to E8 medium. On day 2, the medium was switched to E8 medium supplemented with the small molecules. Following overnight incubation, the cells were collected for subsequent analysis on day 3.
The RNA was extracted using TRIzol (Life Technologies) and Direct-zol™ RNA MiniPrep kit (Zymo Research) as per manufacturer instructions. The RNA was reverse transcribed using iScript cDNA synthesis kit (Bio-Rad). The qPCR was performed on CFX Connect (Bio-Rad) using iTaq Universal SYBR Green Supermix (Bio-Rad). GAPDH was used as a reference gene for normalization. The relative gene expression levels were determined using the ddCt method.

KP230 cells [4] = assay: Proliferation assay, KP230 cells; type: cell-based, mouse; settings: 10 μM daily for 72 hours
Source text: (§3) YAP1 cell culture and treatments: Eisinger lab: Murine KP230 cells, a Yap1-dependent cancer cell line, were derived from a tumor from the KP mouse model (Kras^G12/D; Trp53^f/fl), as described in Eisinger-Mathason, T. S. K. et al., Proc. Natl. Acad. Sci. U.S.A 112 (2015): E3402-11, which is hereby incorporated by reference in its entirety. STS-109 UPS cells were derived from a human UPS tumor and validated by Rebecca Gladdy, MD (Sinai Health System, Toronto, Ontario, Canada). TC32 cells were a gift from Patrick Grohar, MD, PhD (Children's Hospital of Philadelphia). HT-1080, HCT-116, and HEK293T cells were purchased from ATCC. KP230, HT-1080, and HEK-293T cells were grown in DMEM with 10% FBS, 1% L-glutamine, and 1% penicillin/streptomycin (P/S). STS-109 cells were cultured in DMEM with 20% FBS, 1% L-glutamine, and 1% P/S. TC32 cells were grown in RPMI with 10% FBS, 1% L-glutamine, and 1% P/S. HCT-116 cells were cultured in McCoy's 5A medium with 10% FBS and 1% P/S. All cells were confirmed to be negative for mycoplasma contamination and were maintained in an incubator at 37C with 5% CO2. For experimental purposes, cells were cultured for up to 20 passages before being discarded, and were grown to approximately 50% confluence to circumvent the effects of high cell density on Yap1 expression and activity. All cell lines in the Eisinger laboratory were treated with 10 μM of each inhibitor or an equivalent volume of DMSO every 24 hours for 3 days, except for STS-109 cells, which were treated daily for 8 days.
(§4) NB4A treatment: Cells were treated with 10 μM of each inhibitor or an equivalent volume of DMSO every 24 hours for 3-8 days, and counted with a hemocytometer with trypan blue exclusion daily (KP230, HT-1080, TC32, HCT-116), or every 2 days (STS-109).

KP230 cells [5] = assay: Percent viability of KP230 cells; type: cell-based, mouse; settings: 10 μM daily for 72 hours
Source text: as §3, with “For experimental purposes, cells were cultured for up to 20 passages before being discarded, and were grown to approximately 50% confluence to circumvent the effects of high cell density on Yap1 expression and activity. All cell lines in the Eisinger laboratory were treated with 10 μM of each inhibitor or an equivalent volume of DMSO every 24 hours for 3 days, except for STS-109 cells, which were treated daily for 8 days.” left out
as §4

[6] = tested on: HEK293, HepG2, A549 cells; settings: per PubChem, cited from earlier work
PAX8 = PAX8 (Homo sapiens, UniProt Q06710); settings: per PubChem; cited from earlier work
murine periosteal cells = assay: qPCR of Yap1 and Cyr61 in murine periosteal cells; type: cell-based, mouse; settings: 5 μM
Experimental: Murine periosteal cells were isolated from a transgenic mouse model (CMV-Cre; R26R-rtTA^fl; tetO-YAP^S127A) in which YAP1 can be activated in a doxycycline inducible manner (Camargo 2011). This mouse model expresses a mutant form of YAP1 (YAP^S127A) that escapes degradation. Cells were cultured in a-MEM with 15% Fetal Bovine serum (S11550, R&D Systems), 1% GlutaMAX-I (Gibco, 35050-061) and 1% Penicillin/Streptomycin (Gibco, 15140-122).
To induce YAP^S127A, […] doxycycline was added to the cell culture medium for 48 hours. This was used as a positive control to compare YAP1 mRNA expression. Cells were also treated with BRD-K34692511-001-01-9 at 5 μM. mRNA was isolated from cells (n=3/group/time point) at 1, 4 or 48 hours after treatment using Qiagen RNeasy Mini kit (Qiagen, 74106). cDNA was prepared as per the manufacturer's protocol using the High-Capacity Reverse Transcription kit (Thermofisher scientific, 4368814). qPCR analysis was performed using the QuantStudio 6 Pro Real-Time PCR System.

Sequence of PAX8 (Q06710 whole entry, species assumed): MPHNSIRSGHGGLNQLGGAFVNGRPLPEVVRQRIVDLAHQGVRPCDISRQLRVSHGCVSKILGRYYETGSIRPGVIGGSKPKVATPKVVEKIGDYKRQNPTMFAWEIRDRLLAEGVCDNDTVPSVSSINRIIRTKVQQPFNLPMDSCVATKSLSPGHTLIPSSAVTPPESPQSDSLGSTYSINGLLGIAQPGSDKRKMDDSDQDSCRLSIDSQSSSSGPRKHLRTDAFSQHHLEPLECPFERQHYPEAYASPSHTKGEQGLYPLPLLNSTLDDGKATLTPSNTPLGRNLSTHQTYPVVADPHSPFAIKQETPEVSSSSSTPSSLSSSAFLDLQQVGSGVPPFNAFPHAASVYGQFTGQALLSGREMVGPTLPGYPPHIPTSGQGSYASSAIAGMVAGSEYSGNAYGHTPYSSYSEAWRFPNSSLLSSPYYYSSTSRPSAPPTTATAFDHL

Structure (SMILES) | Cell Painting profile correlation with YAP1 overexpression [1] | Corr. to YAP1 cluster [1] | Cell Painting profile correlation with TRAF2 overexpression [2] | Corr. to TRAF2 [2] | proliferation in the U2OS Cell Painting images (U2OS cells) | Avg. Cell Count z-score (U2OS cells) | mRNA levels of hippo pathway members (YAP1, CTGF, CYR61) [3] | proliferation (KP230 cells [4]) | cell viability (KP230 cells [5]) | AC50 ([6]; read-out: AC50, inhibition of cell proliferation) [µM] | PAX8 inhibition (PAX8) | mRNA levels of Yap1 and Cyr61 (murine periosteal cells; 1 and 4 hours) | mRNA levels of Yap1 and Cyr61 (murine periosteal cells; 48 hours) | AC50, inhibition of cell proliferation [6]
CO[C@@H]1CN(C)C(=O)c2ccc(NC(=O)c3ccc(-c4ccccc4)cc3)cc2OC[C@H](C)NC[C@@H]1C [BRD-K28862419, N-[(4S,7S,8S)-8-methoxy-4,7,10-trimethyl-11-oxo-2-oxa-5,10-diazabicyclo[10.4.0]hexadeca-1(12),13,15-trien-15-yl]-4-phenylbenzamide] | −0.43 | −0.4317 | 0.41 | 0.4068 | −2.0 st dev | −2.044 | did not dramatically impact | inhibited KP230 cell proliferation | modestly yet significantly reduced | 5 to 18 | inhibits PAX8 | – | – | –
CO[C@@H]1CN(C)C(=O)c2cc(NC(=O)Nc3ccc(C(F)(F)F)cc3)ccc2OC[C@@H](C)NC[C@@H]1C [BRD-K34692511, 1-[(4R,7S,8S)-8-methoxy-4,7,10-trimethyl-11-oxo-2-oxa-5,10-diazabicyclo[10.4.0]hexadeca-1(12),13,15-trien-14-yl]-3-[4-(trifluoromethyl)phenyl]urea] | −0.45 | −0.4398 | 0.29 | 0.2869 | had none of these impacts | 0.478 | did not dramatically impact | inhibited KP230 cell proliferation | – | – | had none of these impacts | not at 1 and 4 hours | substantially upregulated | had none of these impacts
